Reference: patent US10201532B2, “Compounds and their use” (ALLECRA THERAPEUTICS GMBH, priority 2010, dated 2019)

Experiments:
[1] = test system: KPC2 K. pneumoniae ATCC BAA 1705; assay: Mice systemic infection model; type: in vivo; conditions: sub-cutaneous, printed as piperacillin:BLI dose
[2] = test system: E. coli BAA-199 (SHV-3); assay: MIC of Piperacillin with inhibitor, ESBL isolates; type: cell-based, Escherichia coli
[3] = test system: E. coli BAA-201 (TEM-3); assay: MIC of Piperacillin with inhibitor, ESBL isolates; type: cell-based
[4] = test system: KPC-3 expressing E. coli (J53 R6206); assay: microbe, parasite or virus in culture; type: cell-based, Escherichia coli
Procedure: The β-lactam compound was tested for in vitro antibacterial activities by the broth micro-dilution or agar dilution method as specified in documents published by Clinical and Laboratory Standards Institute (CLSI), USA (formerly NCCLS). Approved standard M7-A7, January 2006, CLSI, Wayne, Pa., USA and M100-S18, January 2008, CLSI, Wayne, Pa., USA.
In agar dilution method briefly, stock solutions of the cephalosporins for veterinary use (e.g. 2 mg/mL) was made in water, 0.1M phosphate buffers or appropriate solvents and the solution was serially two fold diluted. Compound-1 was dissolved in water and Tazobactam (comparator BLI) in 0.1M phosphate buffer, pH 6.0 to get a solution of 1 mg/mL. Cephalosporins were screened in a concentration range of 0.5-32 μg/mL. For combination, Tazobactam or the Compound-1 described herein were tested at a fixed concentration of 4 μg/mL along with the cephalosporins concentration ranging from 0.5 to 32 μg/mL. […] The compound of formula (I) and Tazobactam were also tested individually. The bacterial inoculum was prepared by picking 3 to 5 well isolated bacterial colonies with the same morphological appearance from an 18-24 h old culture and adjusting the turbidity of the saline suspension to 0.5 McFarland turbidity standard equivalent to a bacterial population of ˜1×10^8 CFU per mL of suspension. The suspension was diluted 1:10 in saline to get a bacterial population of ˜1×10^7 CFU/mL as inoculum. This bacterial inoculum was inoculated onto the prepared petri dishes by a multipoint inoculator with each inoculum spot containing ˜1×10^4 CFU of the bacterial strain. The inoculated petri dishes were incubated at 35° C. in an ambient atmosphere for 18-20 h.

[5] = test system: K. pneumoniae 700603 (SHV-18); assay: MIC of Piperacillin with inhibitor, ESBL isolates; type: cell-based, Klebsiella pneumoniae
[6] = test system: K. pneumoniae UMM3 (KPC2); assay: Synergistic broth micro-dilution MIC; type: cell-based, Klebsiella pneumoniae; conditions: BLI at 4 μg/mL
[7] = test system: KPC-2 producing K. pneumoniae (ATCC BAA-1705); assay: Synergistic broth micro-dilution MIC (checkerboard); type: cell-based, Klebsiella pneumoniae; conditions: ATCC BAA-1705
[8] = test system: P. mirabilis BAA-663 (TEM-89); assay: MIC of Piperacillin with inhibitor, ESBL isolates; type: cell-based
[9] = BLI at 4 μg/mL, E. coli J53 R6206

Structure (SMILES): C[C@]1(Cn2ccnn2)[C@H](C(=O)O)N2C(=O)C[C@H]2S1(=O)=O [Tazobactam]
- ED50 of Piperacillin:BLI at 1:1 ratio [1]: >200:>200 mg/kg
- ED50 of Piperacillin:BLI at 1:1 ratio ([1]; listed as tazobactam): > 200 mg/kg
- MIC of Piperacillin with inhibitor ([2]; inhibitor at 1 μg/mL): >128 µg/mL
- MIC of Piperacillin with inhibitor ([2]; inhibitor at 2 μg/mL): >128 µg/mL
- MIC of Piperacillin with inhibitor ([2]; inhibitor at 4 μg/mL): >128 µg/mL
- MIC of Piperacillin with inhibitor ([3]; inhibitor at 1 μg/mL): 4 µg/mL
- MIC of Piperacillin with inhibitor ([3]; inhibitor at 2 μg/mL): 4 µg/mL
- MIC of Piperacillin with inhibitor ([3]; inhibitor at 4 μg/mL): 2 µg/mL
- MIC of Cefadroxil in combination with BLI [4, 9]: >32 µg/mL
- MIC of Cefalonium in combination with BLI [4, 9]: 32 µg/mL
- MIC of Cefquinome in combination with BLI [4, 9]: 8 µg/mL
- MIC of Ceftiofur in combination with BLI [4, 9]: 2 µg/mL
- MIC ([4]; Escherichia coli, read-out: MIC of BLI alone): > 16 µg/mL
- MIC of Piperacillin with inhibitor ([5]; inhibitor at 1 μg/mL): 16 µg/mL
- MIC of Piperacillin with inhibitor ([5]; inhibitor at 2 μg/mL): 16 µg/mL
- MIC of Piperacillin with inhibitor ([5]; inhibitor at 4 μg/mL): 16 µg/mL
- MIC of Imipenem in combination with BLI [6]: 4 µg/mL
- MIC of Cefquinome in combination with BLI ([7]; BLI at 1 μg/mL): >64 µg/mL
- MIC of Ceftiofur in combination with BLI ([7]; BLI at 1 μg/mL): >64 µg/mL
- MIC of Cefepime in combination with BLI ([7]; BLI at 2 μg/mL): 64 µg/mL
- MIC of Cefotaxime in combination with BLI ([7]; BLI at 2 μg/mL): ≥64 µg/mL
- MIC of Cefquinome in combination with BLI ([7]; BLI at 2 μg/mL): >64 µg/mL
- MIC of Ceftazidime in combination with BLI ([7]; BLI at 2 μg/mL): >64 µg/mL
- MIC of Ceftiofur in combination with BLI ([7]; BLI at 2 μg/mL): >64 µg/mL
- MIC of Ceftobiprole in combination with BLI ([7]; BLI at 2 μg/mL): >64 µg/mL
- MIC of Imipenem in combination with BLI ([7]; BLI at 2 μg/mL): 16 µg/mL
- MIC of Meropenem in combination with BLI ([7]; BLI at 2 μg/mL): 32 µg/mL
- MIC of Aztreonam in combination with BLI ([7]; BLI at 4 μg/mL): >64 µg/mL
- MIC of Cefadroxil in combination with BLI ([7]; BLI at 4 μg/mL): >64 µg/mL
- MIC of Cefalonium in combination with BLI ([7]; BLI at 4 μg/mL): >64 µg/mL
- MIC of Cefepime in combination with BLI ([7]; BLI at 4 μg/mL): 64 µg/mL
- MIC of Cefotaxime in combination with BLI ([7]; BLI at 4 μg/mL): 32 to 64 µg/mL
- MIC of Cefquinome in combination with BLI ([7]; BLI at 4 μg/mL): >64 µg/mL
- MIC of Ceftazidime in combination with BLI ([7]; BLI at 4 μg/mL): >64 µg/mL
- MIC of Ceftiofur in combination with BLI ([7]; BLI at 4 μg/mL): >64 µg/mL
- MIC of Ceftobiprole in combination with BLI ([7]; BLI at 4 μg/mL): >64 µg/mL
- MIC of Ertapenem in combination with BLI ([7]; BLI at 4 μg/mL): >64 µg/mL
- MIC of Faropenem in combination with BLI ([7]; BLI at 4 μg/mL): >64 µg/mL
- MIC of Imipenem in combination with BLI ([7]; BLI at 4 μg/mL): 16 µg/mL
- MIC of Meropenem in combination with BLI ([7]; BLI at 4 μg/mL): 32 µg/mL
- MIC of Cefepime in combination with BLI ([7]; BLI at 8 μg/mL): 32 µg/mL
- MIC of Cefotaxime in combination with BLI ([7]; BLI at 8 μg/mL): 32 µg/mL
- MIC of Cefquinome in combination with BLI ([7]; BLI at 8 μg/mL): 64 µg/mL
- MIC of Ceftazidime in combination with BLI ([7]; BLI at 8 μg/mL): >64 µg/mL
- MIC of Ceftiofur in combination with BLI ([7]; BLI at 8 μg/mL): >64 µg/mL
- MIC of Ceftobiprole in combination with BLI ([7]; BLI at 8 μg/mL): >64 µg/mL
- MIC of Ertapenem in combination with BLI ([7]; BLI at 8 μg/mL): >64 µg/mL
- MIC of Faropenem in combination with BLI ([7]; BLI at 8 μg/mL): >64 µg/mL
- MIC of Imipenem in combination with BLI ([7]; BLI at 8 μg/mL): 8 to 16 µg/mL
- MIC of Meropenem in combination with BLI ([7]; BLI at 8 μg/mL): 16 to 32 µg/mL
- MIC of Aztreonam in combination with BLI ([7]; BLI at 16 μg/mL): >64 µg/mL
- MIC of Cefadroxil in combination with BLI ([7]; BLI at 16 μg/mL): >64 µg/mL
- MIC of Cefalonium in combination with BLI ([7]; BLI at 16 μg/mL): >64 µg/mL
- MIC of Cefepime in combination with BLI ([7]; BLI at 16 μg/mL): 32 µg/mL
- MIC of Cefotaxime in combination with BLI ([7]; BLI at 16 μg/mL): 32 µg/mL
- MIC of Cefquinome in combination with BLI ([7]; BLI at 16 μg/mL): 64 µg/mL
- MIC of Ceftazidime in combination with BLI ([7]; BLI at 16 μg/mL): >64 µg/mL
- MIC of Ceftiofur in combination with BLI ([7]; BLI at 16 μg/mL): >64 µg/mL
- MIC of Ceftobiprole in combination with BLI ([7]; BLI at 16 μg/mL): >64 µg/mL
- MIC of Ertapenem in combination with BLI ([7]; BLI at 16 μg/mL): 64 µg/mL
- MIC of Faropenem in combination with BLI ([7]; BLI at 16 μg/mL): >64 µg/mL
- MIC of Imipenem in combination with BLI ([7]; BLI at 16 μg/mL): 8 µg/mL
- MIC of Meropenem in combination with BLI ([7]; BLI at 16 μg/mL): 8 to 16 µg/mL
- MIC of Cefquinome in combination with BLI ([7]; BLI at 32 μg/mL): 64 µg/mL
- MIC of Ceftiofur in combination with BLI ([7]; BLI at 32 μg/mL): 64 µg/mL
- MIC of Aztreonam in combination with BLI ([7]; BLI at 64 μg/mL): >64 µg/mL
- MIC of Cefadroxil in combination with BLI ([7]; BLI at 64 μg/mL): >64 µg/mL
- MIC of Cefalonium in combination with BLI ([7]; BLI at 64 μg/mL): >64 µg/mL
- MIC of Cefepime in combination with BLI ([7]; BLI at 64 μg/mL): 32 µg/mL
- MIC of Cefotaxime in combination with BLI ([7]; BLI at 64 μg/mL): 32 µg/mL
- MIC of Cefquinome in combination with BLI ([7]; BLI at 64 μg/mL): 64 µg/mL
- MIC of Ceftazidime in combination with BLI ([7]; BLI at 64 μg/mL): 64 µg/mL
- MIC of Ceftiofur in combination with BLI ([7]; BLI at 64 μg/mL): 64 µg/mL
- MIC of Ceftobiprole in combination with BLI ([7]; BLI at 64 μg/mL): >64 µg/mL
- MIC of Ertapenem in combination with BLI ([7]; BLI at 64 μg/mL): 32 µg/mL
- MIC of Faropenem in combination with BLI ([7]; BLI at 64 μg/mL): >64 µg/mL
- MIC of Imipenem in combination with BLI ([7]; BLI at 64 μg/mL): 4 to 8 µg/mL
- MIC of Meropenem in combination with BLI ([7]; BLI at 64 μg/mL): 4 µg/mL
- MIC of Piperacillin with inhibitor ([8]; inhibitor at 1 μg/mL): 8 µg/mL
- MIC of Piperacillin with inhibitor ([8]; inhibitor at 2 μg/mL): 8 µg/mL
- MIC of Piperacillin with inhibitor ([8]; inhibitor at 4 μg/mL): 4 µg/mL
